From patent US20230381774A1, “MICROFLUDIC LAB-ON-CHIP DEVICE, MATRIX, SMALL MOLECULES AND THREE-DIMENSIONAL SPHEROIDS FOR CELL REPROGRAMMING” (The Regents of the University of California, priority 2022, published 2023)

Tests used:
Type in all cases: cell-based, mouse
H3K27me3 = assay: Western blotting of H3K27me3
Experimental: Equal amounts of total protein (50 μg) from each sample were separated in a 10% SDS-PAGE gel and transferred to a PVDF membrane at 120 V for 2 hours at room temperature. The blot was blocked with 5% nonfat dry milk suspended in 1×TBS (25 mM Tris, 137 mM NaCl, and 2.7 mM KCl) for 1 hour. Membranes were incubated sequentially with primary antibodies and secondary antibodies. Bands were scanned using a densitometer (Bio-Rad) and quantified using the Quantity One 4.6.3 software (Bio-Rad).

[1] = system: BAM-transduced fibroblasts; assay: iN reprogramming on PAAm gels of varying stiffness; details: pre-treated for 24 hours before adding Dox
From the text: To determine the role of matrix stiffness on iN reprogramming, adult mouse fibroblasts were transduced with doxycycline-inducible lentiviruses containing the three reprogramming factors Ascl1, Brn2 and Myt1l (BAM), and then seeded onto polyacrylamide (PAAm) gels of various stiffness (40 kPa, 20 kPa, and 1 kPa) coated with fibronectin. Glass coverslips coated with the same ECM protein were used as a rigid glass surface control (FIG. 15a). As shown in FIG. 15b-c, both the cell area and nuclear volume of fibroblasts decreased as the stiffness of the PAAm gel decreased. […] After 7 days, cultures were fixed and immunostained for neuronal marker, neuron-specific class III β-tubulin (Tubb3) in order to identify iN cells and determine the reprogramming efficiency (FIG. 15a). […] To determine whether matrix stiffness could modulate the activation of endogenous Ascl1, fibroblasts were transduced with an Ascl1 promoter driven-GFP construct and reprogrammed for 2 days.

[2] = system: histone acetyltransferase (HAT); assay: HAT activity in fibroblasts on PAAm gels of varying stiffness; details: glass and gels of various stiffness, inhibitor for 24 hours
From the text: FIG. 16. Matrix stiffness modulates histone acetyltransferase (HAT) activity and histone acetylation. (a) Immunofluorescent images of AcH3 in non-transduced fibroblasts cultured on glass and PAAm gels of various stiffness for 2 days. Scale bar, 10 μm. (b) Quantification of AcH3 intensity in cells cultured on glass and PAAm gels of various stiffness (based on experiments in a) (n>40). […] (e) Volcano plot showing differential accessible regions. Red dots indicate regions with increased chromatin accessibility and blue dots regions with decreased accessibility. (f) Heatmap representation of differentially accessible regions that overlap with Ascl1 ChIP-seq peaks (GSE43916: SRX323557). Each row represents a differential region; each column is one biological replicate of the indicated condition. (g) Quantification of HAT activity in fibroblasts cultured on glass and PAAm gels of various stiffness for 2 days, as determined using the Epigenase HAT activity kit (n=6). (h) Quantification of HAT activity in fibroblasts cultured on glass and PA gels of various stiffness for 1 day followed by treatment with vehicle control (DMSO) or a HAT inhibitor (anacardic acid, AA) for 24 hours (n=4). […] In b-i, statistical significance was determined by a one-way ANOVA and Tukey's multiple comparison test (N.S.: Not significant., *p<0.05, **p<0.01, ***p<0.001). […]

SMILES	H3K27me3 level (H3K27me3)	stiffness-dependent reprogramming efficiency under HAT inhibitor [1]	stiffness-dependent HAT activity under HAT inhibitor [2]
CS(=O)(=O)c1ccc(-c2cnc(NCc3ccco3)n3cnnc23)cc1 [EED226]	inhibited	–	–
CCCCCCCCCCCCCCCc1cccc(O)c1C(=O)O [anacardic acid]	–	inhibited the biphasic enhancement of HAT activity and the reprogramming efficiency	inhibited the biphasic enhancement of HAT activity and the reprogramming efficiency
